# Values joined by “and” are separate entries in the source; they are usually repeats but may differ in a detail not shown here. Equal values may be shown once. Read-outs that look alike come from different tables or passages of the source. Marks after values point to notes of the source that are not given here.
# What was measured:
# [1] = biological target: T. congolense adenosine transporter; assay: [3H]-adenosine uptake and its inhibition in T. congolense IL3000 bloodstream forms; format: cell-based, Trypanosoma congolense; conditions: 0.05 µM [3H]-adenosine, 30 s; IC50 converted to Ki; read-out: Ki on the transport of [3H]-adenosine
# Description: (§1) Uptake assays using radiolabeled trypanocides and/or nucleosides were carried out as described previously. Briefly, parasite cultures were harvested, washed twice in assay buffer (33 mM HEPES, 98 mM NaCl, 4.6 mM KCl, 0.5 mM CaCl2, 0.07 mM MgSO4, 5.8 mM NaH3PO4, 0.03 mM MgCl2, 23 mM NaHCO3, 14 mM D-glucose, pH 7.3), then resuspended and adjusted to a density of 1 × 10^8 cells/mL in assay buffer. The radiolabeled permeant in the presence or absence of different concentrations of potential inhibitors reconstituted in 100 μL assay buffer was deposited on top of 250 μL oil mix in microcentrifuge tubes; 1 × 10^7 parasites in 100 μL assay buffer were added to the tube and incubated for a pre-determined interval. The reaction was stopped by the addition of 1 mL of a high concentration of ice-cold unlabeled substrate in assay buffer (‘stop solution’) and centrifugation, or by immediate centrifugation at […] as appropriate. The microcentrifuge tubes were flash-frozen, and the bottom of each tube containing the cell pellet was cut off and transferred to a scintillation vial. Cell pellets were lysed in 2% SDS, after which scintillation fluid (Scintlogic U, Lablogic) was added, followed by overnight incubation in the dark. Scintillation was measured in a 300SL (Hidex) scintillation counter (Hidex). All the assays were conducted in triplicate and analysis was carried out using Microsoft Excel and GraphPad Prism. All kinetic parameters were obtained on at least 3 separate occasions.
# (§2) The dose-dependent uptake assay allowed for the affinity of nucleoside analogs to different nucleoside transporters to be determined by measuring the extent to which the analogs compete with and inhibit the uptake of radiolabel adenosine. This allowed for the determination of biochemical parameters such as Km and Vmax through the application of the Michaelis–Menten equation V0 = Vmax([substrate]/([substrate] + Km)). The 50% Inhibitory Concentration (IC50) of the purines and pyrimidines and their analogs was determined from non-linear regression to sigmoid curves with variable slope (Prism 8), and the IC50 of the inhibitor and the Km of the labeled permeant were then used to calculate the inhibition constant (Ki) of the analogs through the Cheng–Prusoff equation: Ki = IC50/(1 + (L/Km)), where L denotes the radiolabel concentration. The calculated Ki was in turn used to determine the Gibbs free energy (ΔG^0) of the inhibitor–transporter interaction using the equation: ΔG^0 = -RTln(Ki), where R represents the gas constant and T symbolizes the absolute temperature in Kelvin [104].
# TcoAT1 [2] = format: cell-based, Trypanosoma congolense
# Excerpt: (§3) The information for the T. congolense adenosine transporter (TcoAT1) and four putative T. vivax nucleoside transporters was obtained in the TritrypDB (tritrypdb.org/tritrypdb) genome database. Primers were designed to flank each gene upstream of the 5′ end (forward) and downstream of the 3′ end (reverse) as described (primer sequences in Supplementary Table S2). Following amplification from the genomic DNA of T. congolense or T. vivax, DNA for each extracted gene was ligated into the pNUS-HcN expression vector doubly digested with NdeI using the NEBuilder kit according to the manufacturer’s instructions (New England Biolabs). Construct was transformed into competent E. coli cells, and ligation was confirmed by restriction enzyme digestion of isolated plasmid DNA followed by Sanger sequencing (Source BioScience, Nottingham, UK). Confirmed plasmids were then transfected into L. mexicana cell line in which both NT1 and NT2 were doubly knocked out (SUPKO) and derived from L. mexicana Cas9 [64] as described. Clones grown in medium containing 50 μg/mL neomycin (G418) were collected for further confirmation by PCR with genomic DNA using a forward primer of the transporter gene and a reverse primer of the plasmid.
# as §1, §2
# TvxNT3 = TvxNT3 (Trypanosoma vivax, UniProt F9WV62); assay: cell-based; format: cell-based; conditions: difference in ΔG0 relative to the parent purine (adenosine or inosine)
# Sequence of TvxNT3 (F9WV62 entry or part of it): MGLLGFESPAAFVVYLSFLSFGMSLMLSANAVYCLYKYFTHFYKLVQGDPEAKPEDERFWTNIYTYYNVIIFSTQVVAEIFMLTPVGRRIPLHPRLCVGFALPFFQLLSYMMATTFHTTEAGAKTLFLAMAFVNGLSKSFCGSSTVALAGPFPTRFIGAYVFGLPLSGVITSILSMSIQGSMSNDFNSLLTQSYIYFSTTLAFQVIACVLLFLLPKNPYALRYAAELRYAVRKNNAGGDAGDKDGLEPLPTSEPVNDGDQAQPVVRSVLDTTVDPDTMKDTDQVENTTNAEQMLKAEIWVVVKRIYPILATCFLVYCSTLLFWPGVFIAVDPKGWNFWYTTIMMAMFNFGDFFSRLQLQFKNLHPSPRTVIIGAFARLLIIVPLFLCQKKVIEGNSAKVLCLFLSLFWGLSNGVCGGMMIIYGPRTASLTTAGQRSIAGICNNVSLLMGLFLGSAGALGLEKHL
# Excerpt: as §3, §1, §2
# L. mexicana Cas9 = assay: Resazurin drug sensitivity assay, LmexCas9; format: cell-based, Leishmania mexicana; conditions: Leishmania mexicana, read-out: LmexCas9 EC50
# Description: (§4) EC50 values were determined by plotting to an equation for a sigmoid curve with variable slope (GraphPad Prism 8). All values were the average of at least three independent determinations on different days.
# L. mexicana SUPKO+TcoAT1 = assay: microbe, parasite or virus in culture; format: cell-based, Leishmania mexicana; conditions: for EC50: Leishmania mexicana, read-out: SUPKO+TcoAT1 EC50
# Description: as §4
# L. mexicana SUPKO+TvxNT3 = assay: microbe, parasite or virus in culture; format: cell-based, Leishmania mexicana; conditions: for EC50: Leishmania mexicana, read-out: SUPKO+TvxNT3 EC50
# Description: as §4
# L. mexicana SUPKO = assay: microbe, parasite or virus in culture; format: cell-based, Leishmania mexicana; conditions: for EC50: Leishmania mexicana, read-out: SUPKO EC50, resazurin, promastigotes; for SUPKO RF (Cas9): Resistance Factor = EC50(SUPKO)/EC50(Cas9)
# Description: as §4
# T. congolense IL3000 = assay: Alamar Blue (resazurin) assay, T. congolense IL3000; format: cell-based, Trypanosoma congolense; conditions: Trypanosoma congolense, read-out: T. congolense IL3000 EC50
# Description: as §4
# T. congolense 6C3 = assay: microbe, parasite or virus in culture; format: cell-based, Trypanosoma congolense; conditions: for EC50: Trypanosoma congolense, diminazene resistant strain, resazurin, read-out: T. congolense 6C3 EC50; for T. congolense 6C3 RF: resistance factor = EC50 (test strain)/EC50(control strain)
# Description: as §4
# [3] = biological target: T. b. brucei P1 (TbP1/NT2); conditions: cited from earlier work
# T. vivax = tested on: T. vivax; design: method as in Mabille et al. [69]; conditions: added for comparison only; ref Mabille et al. [69]; cited from earlier work
# T. brucei TbAT1-KO = conditions: cited from earlier work
# T.b.b. B48 = assay: Alamar Blue (resazurin) assay, T. b. brucei B48; format: cell-based, Trypanosoma brucei brucei; conditions: Trypanosoma brucei, read-out: T.b.b. B48 EC50
# Description: as §4
# TcoAT1 [4] = assay: Uptake of [3H]-pentamidine and [3H]-diminazene in SUPKO+TcoAT1 versus SUPKO; format: cell-based, Trypanosoma congolense; conditions: 25 nM [3H]-pentamidine or 50 nM [3H]-diminazene, SUPKO+TcoAT1 vs SUPKO
# Description: as §1, with “All the assays were conducted in triplicate and analysis was carried out using Microsoft Excel and GraphPad Prism. All kinetic parameters were obtained on at least 3 separate occasions.” left out
# T. evansi = assay: Alamar Blue (resazurin) assay, T. evansi; format: cell-based, Trypanosoma evansi; conditions: Trypanosoma evansi; resazurin; read-out: T. evansi EC50
# Description: as §4
# T. equiperdum = assay: Alamar Blue (resazurin) assay, T. equiperdum; format: cell-based, Trypanosoma equiperdum; conditions: Trypanosoma equiperdum; resazurin; read-out: T. equiperdum EC50
# Description: as §4
# [5] = Resazurin toxicity assay on human embryonic kidney cells; format: cell-based; conditions: human
# Description: as §4
# [6] = tested on: human embryonic kidney (HEK) cells; assay: as above; format: cell-based
# Description: as §4
# [7] = Resistance Factor relative to SUPKO
Compound,EC50 (L. mexicana Cas9),EC50 (L. mexicana SUPKO+TcoAT1),EC50 (L. mexicana SUPKO+TvxNT3),EC50 (L. mexicana SUPKO),SUPKO RF (Cas9) (L. mexicana SUPKO),"EC50 (T. congolense IL3000; BSF, resazurin)",EC50 (T. congolense 6C3),T. congolense 6C3 RF (T. congolense 6C3),EC50 (T. vivax),EC50 (T.b.b. B48),other results
"Nc1ncnc2c1ncn2[C@@H]1O[C@H](CO)C[C@H]1O [Cordycepin, 3′-deoxyadenosine]",91600 ± 12900 nM,> 100000 nM,> 100000 nM,> 100000 nM,>1.09,2460 ± 420 nM,2160 ± 440 nM,0.88,120 ± 20 nM,–,"Ki [1]: 12000 ± 2000 nM; fold difference in affinity compared to adenosine (TcoAT1 [2]): 10 fold; Ki (TcoAT1 [2]; 0.05 µM [3H]-adenosine, 10 s, IC50 converted to Ki, read-out: Ki on the transport of [3H]-adenosine): 4590 nM and 4600 nM; ΔG0 (TcoAT1 [2]; Gibbs free energy of binding, from Km or Ki): -7.29 kcal/mol; δ(ΔG0) (TcoAT1 [2]; loss of Gibbs free energy of binding relative to the parent nucleoside): 1.42 kcal/mol; δ(ΔG0) (TvxNT3): -1.07 kcal/mol; Ki ([3]; T. b. brucei bloodstream forms, read-out: Tbb P1 Ki): 210000 ± 48000 nM; Tbb P1 ΔG0 [3]: -5.02 kcal/mol; resistance of the TbAT1-KO strain (T. brucei TbAT1-KO): 17 fold"
"N=C(N)c1ccc(/N=N/Nc2ccc(C(=N)N)cc2)cc1 [Diminazene, reference compound]",–,–,–,–,1.27,–,1320 ± 430 nM,5.7 ^a,–,340 ± 130 nM,EC50 (T. congolense IL3000): 230 ± 40 nM; effect of the expression of TcoAT1 on the uptake of the trypanocide (TcoAT1 [4]): no effect
"Nc1ncnc2c1c(F)cn2[C@@H]1O[C@H](CO)[C@@H](O)[C@H]1O [FH3167, 7-deaza-7-fluoroadenosine]",96 ± 9 nM,7500 ± 900 nM,57200 ± 6800 nM,63400 ± 5500 nM,660,450 ± 620 nM,480 ± 100 nM,1.06,38 ± 6 nM,160 ± 30 nM,SUPKO+TcoAT1 RF (SUPKO) (L. mexicana SUPKO+TcoAT1; [7]): 8.48; SUPKO+TvxNT3 RF (SUPKO) (L. mexicana SUPKO+TvxNT3; [7]): 1.1; EC50 (T. evansi): 180 ± 23 nM; EC50 (T. equiperdum): 32 ± 7 nM; EC50 [5]: 490 ± 50 nM; SI T. congolense ([6]; selectivity index = EC50 (HEK cells)/EC50 (T. congolense)): 1.1; SI T. equiperdum ([6]; selectivity index = EC50 (HEK cells)/EC50 (T. equiperdum)): 15; SI T. evansi ([6]; selectivity index = EC50 (HEK cells)/EC50 (T. evansi)): 2.7

# Reference: paper PMC9960827, “Cloning and Characterization of Trypanosoma congolense and T. vivax Nucleoside Transporters Reveal the Potential of P1-Type Carriers for the Discovery of Broad-Spectrum Nucleoside-Based Therapeutics against Animal African Trypanosomiasis” (International Journal of Molecular Sciences, 2023)
